Results as given in patent US4731357A (Imperial Chemical Industries PLC, priority 1985, dated 1988).

Tests used:
[1] = system: sectioned Achilles tendons; experiment: Healing of sectioned Achilles tendons in the rat, urogastrone injected twice daily at the tendon lesion (experiment 1, Table 1); assay type: in vivo
Procedure: (§1) Male Wistar rats (240 g.) were subjected under general anaesthesia to partial tendonotomy of the left Achilles tendon, the small skin wound was then sutured and the animals allowed to recover. […] Normal saline was injected into a control group of operated animals (group [C]). […] After termination the scar tissue was removed from the point of insertion into the calcaneus bone to the point of merger of the tendon into the muscle mass. Weights of the scar tissue were measured after drying and defatting as described in Greenwald, S. E. and Berry, C. L. Cardiovasc. Res. 12,364-372 (1978). The collagen content was obtained from hydroxyproline measurements as described in Grant, R. A. J. Clin. Path. 17, 685-686 (1964) on the tissue after proteolytic (see Smith, R. L., Gilberson, E., Koliatsu, N., Merchant, T. and Schurman, D. J. Analyst. Biochem. 103, 191-200 (1980)) and alkaline (see Huzar, G., Maiocco, J. and Naftolin, F. Analyt. Biochem. 105 424-439 (1980)) digestion. The DNA content of the digests was determined using a sensitive fluorimetric technique (as described in Hinegardner, R. T. Analyt. Biochem. 39, 197-201). The results are ±SEM and were analyzed by Student' s t test. Figures in parentheses indicate the numbers of animals used in each group.

Intact tendon = experiment: Urogastrone injected twice daily into the corresponding region of the unoperated leg (intact tendon, group B, Table 1); assay type: in vivo, rat; conditions: for Collagen / DNA / dry wt: intact tendon plus urogastrone 20 μg./kg. twice daily, ±SEM
Procedure: as §1

[2] = system: sectioned Achilles tendons; experiment: Longer term effects of urogastrone injections on healing of sectioned Achilles tendons in the rat (experiment 2, Table 2); assay type: in vivo; conditions: for Lesion DNA / Lesion dry wt / Lesion Collagen: ±SEM
Procedure: as §1

[3] = system: sectioned Achilles tendon; experiment: Graded doses of urogastrone on healing of sectioned Achilles tendons in rats (Example 2, FIGS. 3 and 4); assay type: in vivo, rat; conditions: 15 days after surgery
Procedure: The graded doses were injected twice daily into the immediate vicinity of the sectioned tendon.
FIG. 4 corresponds to FIG. 3, but represents graphically the collagen content of the repair lesions at the injected zone 15 days after surgery rather than the dry weight of the scar tissue formed at the said zone 15 days after surgery.
The rats employed were male Wistar rats (240 g) and the Achilles tendons were sectioned as described in Example 1.
Graded doses of urogastrone were given twice daily by injection into the immediate vicinity of the sectioned Achilles tendon in rats. […] FIGS. 3 and 4 present the dry weights and collagen contents respectively of the injected zones 15 days after surgery.

intact tendons = experiment: Urogastrone 100 ug/kg injected twice daily into intact tendons in unoperated rats (Example 2); assay type: in vivo, rat; conditions: highest dose (100 ug./kg. twice daily); 15 days
[4] = system: acid secretion in the stomach; conditions: administered parenterally; known; cited from earlier work
[5] = 5 days after surgery, sectioned tendon, 20 μg./kg. twice daily at lesion, ±SEM, p < 0.001 vs saline
[6] = 9 days after surgery, sectioned tendon, 20 μg./kg. twice daily at lesion, ±SEM, p < 0.001 vs saline
[7] = first five days following surgery, statistically highly significant
[8] = 30 days after surgery, urogastrone days 1-15 then 15 days without treatment, NS vs saline

Q: For Urogastrone, which “Lesion DNA” value [1, 5] is on record?
A: 517 ± 12 µg

Q: What about the Lesion dry wt [1, 5] of the same substance?
A: 42.9 ± 2.0 mg

Q: What about the “Lesion DNA” value [1, 6] of the same substance?
A: 653 ± 20 µg

Q: And the Lesion dry wt [1, 6]?
A: 61.1 ± 2.0 mg

Q: What about the “Lesion Collagen” value ([1]; 9 days after surgery, sectioned tendon, 20 μg./kg. twice daily at lesion, ±SEM, p < 0.05 vs saline) of the same substance?
A: 16.8 ± 0.9 mg

Q: What about the “Lesion DNA” value ([1]; 15 days after surgery, sectioned tendon, 20 μg./kg. twice daily at lesion, ±SEM, NS vs saline) of the same substance?
A: 556 ± 23 µg

Q: And the Lesion dry wt ([1]; 15 days after surgery, sectioned tendon, 20 μg./kg. twice daily at lesion, ±SEM, p < 0.001 vs saline)?
A: 53.3 ± 2.8 mg

Q: And the “Apparent increase in DNA content of urogastrone-treated lesions” value ([1]; day 15, not significantly different from the control value)?
A: 8%

Q: What about the “Increase in collagen over saline-injected controls” value ([1]; fifteen days after surgery) of the same substance?
A: 28%

Q: What about the “Increase in dry weight over saline-injected controls” value ([1]; fifteen days after surgery) of the same substance?
A: 24%

Q: And the “Increase in collagen content of scar tissue compared with saline-injected controls” value [1, 7]?
A: 61%

Q: What about the “Increase in dry weight of scar tissue compared with saline-injected controls” value [1, 7] of the same substance?
A: 38%

Q: What about the Collagen (Intact tendon; 5 days, NS vs intact tendon) of the same substance?
A: 6.1 ± 0.3 mg

Q: And the DNA (Intact tendon; 5 days, NS vs intact tendon)?
A: 94.3 ± 8.5 µg

Q: And the dry wt (Intact tendon; 5 days, NS vs intact tendon)?
A: 12.7 ± 1.6 mg

Q: What about the Collagen (Intact tendon; 9 days, NS vs intact tendon) of the same substance?
A: 7.0 ± 0.5 mg

Q: What about the dry wt (Intact tendon; 9 days, NS vs intact tendon) of the same substance?
A: 14.1 ± 1.2 mg

Q: What about the DNA (Intact tendon; 9 days, p < 0.05 vs intact tendon) of the same substance?
A: 124 ± 10 µg

Q: And the Collagen (Intact tendon; 15 days, NS vs intact tendon)?
A: 7.0 ± 0.3 mg

Q: What about the DNA (Intact tendon; 15 days, NS vs intact tendon) of the same substance?
A: 101 ± 6 µg

Q: What about the “Effect on unoperated tendon in the opposite leg” value (Intact tendon; injected twice daily, throughout the treatment period, possible exception of increased DNA content after nine days) of the same substance?
A: little or no effect

Q: And the “Lesion DNA” value ([2]; 15 days after surgery, urogastrone days 1-15, 20 ug./kg. twice daily, NS vs saline)?
A: 668 ± 32 µg

Q: What about the Lesion dry wt ([2]; 15 days after surgery, urogastrone days 1-15, 20 ug./kg. twice daily, p < 0.001 vs saline) of the same substance?
A: 61.8 ± 1.3 mg

Q: What about the “Lesion Collagen” value ([2]; 15 days after surgery, urogastrone days 1-15, 20 ug./kg. twice daily, p < 0.01 vs saline) of the same substance?
A: 28.1 ± 0.9 mg

Q: What about the “Lesion Collagen” value [2, 8] of the same substance?
A: 28.7 ± 1.2 mg

Q: And the Lesion dry wt [2, 8]?
A: 50.2 ± 1.1 mg

Q: And the “Lesion DNA” value ([2]; 30 days after surgery, urogastrone days 1-15 then 15 days without treatment, p < 0.05 vs saline)?
A: 397 ± 17 µg

Q: And the “Lesion DNA” value ([2]; 30 days after surgery, urogastrone days 1-30, 20 ug./kg. twice daily, NS vs saline)?
A: 495 ± 17 µg

Q: What about the “Lesion Collagen” value ([2]; 30 days after surgery, urogastrone days 1-30, 20 ug./kg. twice daily, p < 0.001 vs saline) of the same substance?
A: 32.1 ± 1.3 mg

Q: What about the Lesion dry wt ([2]; 30 days after surgery, urogastrone days 1-30, 20 ug./kg. twice daily, p < 0.01 vs saline) of the same substance?
A: 56.8 ± 2.0 mg

Q: What about the “Dry weight and collagen content of the scars versus animals untreated throughout” value ([2]; dosing stopped after fifteen days, treatment free for a further fifteen days) of the same substance?
A: no longer distinguishable

Q: And the “Collagen content of repair lesion higher than saline-treated control lesions” value ([2]; thirty days on urogastrone)?
A: 27%

Q: What about the “DNA contents of urogastrone versus saline-treated lesions” value ([2]; thirty days on urogastrone) of the same substance?
A: essentially the same

Q: What about the “Dry weight of repair lesion higher than saline-treated control lesions” value ([2]; thirty days on urogastrone) of the same substance?
A: 19%

Q: And the “Collagen contents of the repair lesions” value ([3]; 20 μg./kg. twice daily)?
A: not in the collagen contents

Q: What about the “Dry weights of the repair lesions” value ([3]; 20 μg./kg. twice daily) of the same substance?
A: statistically significant increase

Q: What about the “Collagen contents of the repair lesions” value ([3]; 50 μg./kg. twice daily) of the same substance?
A: significantly increased

Q: What about the “Dry weights of the repair lesions” value ([3]; 50 μg./kg. twice daily) of the same substance?
A: significantly increased

Q: What about the “Collagen contents of the repair lesions” value ([3]; 100 μg./kg. twice daily) of the same substance?
A: significantly increased

Q: What about the “Dry weights of the repair lesions” value ([3]; 100 μg./kg. twice daily) of the same substance?
A: significantly increased

Q: What about the Collagen contents (intact tendons) of the same substance?
A: increased

Q: And the Dry weight (intact tendons)?
A: increased

Q: What about the “Acid secretion in the stomach” value [4] of the same substance?
A: inhibit acid secretion in the stomach
